Experimental data as given in US20240238248A1, “PHARMACEUTICAL COMPOSITION FOR USE IN TREATING CEREBRAL INFARCTION” (Ji Xing Pharmaceuticals Hong Kong Limited, priority 2021, published 2024).
Read-outs that look alike come from different tables or passages of the source.

Key:
[1] = Toxicity test by two-week repeated administration to rats; conditions: both sexes, rat, in vivo, intravenous over 30 minutes once daily for two weeks, 2.4, 12 and 60 mg/kg
Description: (§1) Rats (12 males and 12 females) under neither anesthesia nor unrestrained condition were repeatedly and intravenously given TMS-007 (preparation of a sodium-salt thereof) at a dose of 2.4, 12 and 60 mg/kg (continuously over 30 minutes) once daily for two weeks. The day after completion of repeated administration, the rats were subjected to autopsy. As a result, NOAEL of the toxicity test of rats by repeated administration was determined to be 60 mg/kg or more.

[2] = Toxicity test by two-week repeated administration to cynomolgus monkeys; conditions: both sexes, cynomolgus monkey, in vivo, male and female, intravenous over 30 minutes once daily for two weeks, 3, 10 and 30 mg/kg
Description: (§2) Cynomolgus monkey (3 males per group and 3 females per group) under neither anesthesia nor unrestrained condition were repeatedly and intravenously given TMS-007 (preparation of a sodium-salt thereof) at a dose of 3, 10 and 30 mg/kg (continuously over 30 minutes) once daily for two weeks. The day after completion of repeated administration, the monkeys were subjected to autopsy. As a result, NOAEL of the toxicity test of cynomolgus monkeys by repeated administration was determined to be 10 mg/kg or more in both male and female groups.

[3] = tested on: cerebral infarction patients; test: Phase II single dose study for cerebral infarction patients: safety; assay type: in vivo
Description: (§3) Randomized, double blind, placebo control, single dose, intravenous administration, parallel between groups and dose escalation regimen
(§4) Cerebral infarction patients within 12 hours from onset are used as subjects. Test subjects (90 patients: first cohort: 9, second cohort: 27, third cohort: 54) are determined in accordance with the following selection criteria and exclusion criteria.
To patients with acute cerebral infarction within 12 hours after onset, TMS-007 (SMTP-7 sodium salt preparation)) or a placebo were administered intravenously once (bolus over 1 minute+continuous injection over 30 minutes).
The frequency of occurrence of symptomatic intracranial hemorrhage with NIHSS score worsening of 4 or more points up to 24 hours after administration of TMS-007

[4] = tested on: mice, rats and monkeys; test: Pharmacological tests using mice, rats and monkeys; assay type: in vivo; conditions: dose of 1 to 10 mg/kg
Description: (§5) Cmax and AUC0-24 values when TMS-007 was administered to rats and monkeys were as follows.

[5] = tested on: healthy adult males; test: Phase I test for healthy persons: safety and tolerance; assay type: in vivo, human
Description: (§6) Phase I test (placebo-control randomized double-blind test) for healthy adult males was carried out. Five cohorts each was constituted of 8 persons (active drug was administered to 6 person and a placebo was administered to 2 person) were used in the test. TMS-007 (SMTP-7 sodium salt preparation) or a placebo was administered intravenously once at a dose of 0.05, 0.25, 1, 3, and 6 mg/kg (equivalent) over 31 minutes (bolus over 1 minute+continuous administration over 30 minutes). The subjects determined to be eligible by a screening test were hospitalized the day before administration. Day 3 from completion of administration, the subjects were allow to leave the hospital. Day 7 from completion of administration, post (follow-up) examination was carried out for safety, tolerance and PK in the period up to Day 7.

[6] = Plasma pharmacokinetics in monkeys (extended single-dose and repeated-dose study); assay type: in vivo; conditions: monkey, iv, male monkeys, 10 mg/kg-dose group, extended single-dose study and repeated-dose study (first day), average
Description: as §2, §5

[7] = Phase I test for healthy persons: pharmacokinetics; assay type: in vivo, human; conditions: for Cmax / AUC(0-t): iv; for AUC(0-t): read-out: AUC0-24 (converted)
Description: as §6

[8] = Plasma pharmacokinetics in rats (repeated-dose study); assay type: in vivo; conditions: rat, iv, male rats, 12 mg/kg-dose group, initial day of repeated-dose study, average
Description: as §1, §5

[9] = Phase II single dose study: pharmacokinetics (plasma TMS-007 concentration); assay type: in vivo, human; conditions: for concentration at 31 min / concentration at 2 h: human, plasma, intravenous, patients, read-out: plasma TMS-007 concentration (mean±standard deviation); for concentration at 31 min: 31 minutes after administration; for concentration at 2 h: 2 hours after the administration
Description: (§7) To patients with acute cerebral infarction within 12 hours after onset, TMS-007 (SMTP-7 sodium salt preparation)) or a placebo were administered intravenously once (bolus over 1 minute+continuous injection over 30 minutes). The ratio of number of patients to which an active drug (TMS-007 sodium salt preparation) is to be administered relative to the number of patients to which a placebo is to be administered is set at 2:1 in the first and second cohorts and 1:1 in the third cohort as shown in Table 1 below.
(§8) • Safety (e.g., extracranial hemorrhage, major hemorrhage) up to Day 7 after administration • Symptomatic intracranial hemorrhage and non-symptomatic intracranial hemorrhage within 24 hours after administration • Value of mRS on Day 90 after administration • A rate of recanalization observed in an MRA image of 24 hours after administration • PK (concentration of unchanged form of TMS-007, Cmax, AUC) when TMS-007 was administered
In the PK analysis set, the dose groups except the placebo group were subjected to counting/analysis. The plasma TMS-007 concentrations (original scale value, mean±standard deviation) of the TMS-007 (1, 3, 6 mg/kg) groups (hereinafter described in the same order) 31 minutes after administration of a study drug were 7.294±1.472, 29.28±8.425 and 52.19±12.76 μg/mL, respectively; the plasma TMS-007 concentrations 2 hours after the administration were 0.1379±0.09777, 0.8970±0.5752 and 3.033±2.924 μg/mL, respectively. With respect to the plasma concentration value (logarithmic conversion value) of a study drug 31 minutes after initiation of administration, difference between doses was evaluated by one-way ANOVA using a dose as a factor. As a result, p value was less than 0.0001 and difference was statistically significant
When the dose proportionality of plasma TMS-007 concentration of the investigational new drug 31 minutes after initiation of administration, was evaluated, a point estimation value (two-sided 95% confidence interval) of slope (b) of a regression equation of power model was 1.042 (0.895-1.189). From this, linearity of TMS-007 in the dose range of 1 to 6 mg/kg was confirmed (see, FIG. 11).

[10] = tested on: cerebral infarction patients observed to have occlusion; test: Phase II single dose study: recanalization rate evaluated by MRA; assay type: in vivo, human; conditions: TMS-007 administration group vs placebo group
Description: as §7, §8
The recanalization rate was evaluated by MRA. Patients (39 cases) observed to have occlusion at the time of enrollment and observed to be “canalized” or “partially canalized” on Day 2 were evaluated as recanalization cases. The ratio of the recanalization cases was 14/[…] cases (58.3%) in the TMS-007 administration groups and 4/15 cases (26.7%) in the placebo group. […]

[11] = tested on: cerebral infarction patients; test: Phase II single dose study: mRS on Day 90 after administration; assay type: in vivo, human; conditions: for Odds ratio, rate of obtaining outcome of mRS0-2: Day 90 after administration
Description: as §3, §4, §7, §8
In the FAS group, to mRS evaluation of individual dose groups (mRS 0-1 is assigned 1, mRS 2-6 is assigned 0) Day 90 after administration (Day 90), a logistic model using response, dose groups (TMS-007-combined group and placebo group), mRS on the base line, NIHSS score, age, blood pressure (systolic blood pressure) as explanatory variables was applied, odds ratio and 95% confidence interval of the TMS-007-combined group relative to the placebo group were estimated. The same estimation was carried out by using TMS-007 dose groups as the dose groups relative to the placebo group. More specifically, the odds ratios of individual TMS-007 dose groups relative to the placebo group and 95% confidence interval were estimated.

[12] = male, human, blood, 0.05 mg/kg single i.v. over 31 minutes
[13] = male, human, blood, 0.25 mg/kg single i.v. over 31 minutes
[14] = male, human, blood, 1 mg/kg single i.v. over 31 minutes
[15] = male, human, blood, 3 mg/kg single i.v. over 31 minutes
[16] = male, human, blood, 6 mg/kg single i.v. over 31 minutes
[17] = TMS-007 combined group to placebo group, Day 90, FAS

CC(C)=CCC/C(C)=C/CC[C@]1(C)Oc2c(c(O)cc3c2CN(CCC[C@@H](C(=O)O)N2Cc4c(cc(O)c5c4O[C@@](C)(CC/C=C(\C)CCC=C(C)C)[C@@H](O)C5)C2=O)C3=O)C[C@@H]1O [TMS-007, (S)-2,5-bis((2S,3S)-2-((E)-4,8-dimethylnona-3,7-dien-1-yl)-3,5-dihydroxy-2-methyl-7-oxo-3,4,7,9-tetrahydropyrano[2,3-e]isoindol-8(2H)-yl)pentanoic acid]
NOAEL at 2 weeks [1]: ≥ 60 mg/kg | NOAEL at 2 weeks [2]: ≥ 10 mg/kg | occurrence of major hemorrhage ([3]; human, in vivo): not observed | symptomatic intracranial hemorrhage ([3]; human, in vivo): not observed | frequencies of adverse event, serious adverse event, side effect, serious side effect, adverse event leading to discontinuation vs placebo (Fisher's exact test) ([3]; individual TMS-007 groups and combined group, up to Day 90): not statistically significant | symptomatic intracranial hemorrhage with NIHSS score worsening of 4 or more points ([3]; up to 24 hours after administration, safety analysis set, TMS-007 groups (1, 3, 6 mg/kg)): not observed | medicinal effects [4]: reduction of the area of infarction and improvement of neurological symptoms | Adverse events observed ([5]; single i.v. 0.05-6 mg/kg): all non-serious/mild/restorability | indication of hemorrhagic risk ([5]; single i.v. dose-escalation trial): not observed | Cmax [6]: 45800 to 58600 ng/mL | AUC(0-t) ([6]; read-out: AUC0-24): 32200 to 40200 ng·h/mL | Unchanged form of TMS-007 in urine ([7]; any one of the cohorts): not observed | time of peak blood concentration ([7]; immediately after completion of administration, all cohorts): 31 min | half-life ([7]; male, human, blood, intravenous, regardless of the dose (0.05-6 mg/kg), read-out: half-lives in blood): 10 to 15 min | Cmax [7, 12]: 346 ng/mL | AUC(0-t) [7, 12]: 252 ng·h/mL | Cmax [7, 13]: 1860 ± 150 ng/mL | AUC(0-t) [7, 13]: 1380 ng·h/mL | Cmax [7, 14]: 6700 ng/mL | AUC(0-t) [7, 14]: 5020 ng·h/mL | Cmax [7, 15]: 20300 ng/mL | AUC(0-t) [7, 15]: 16000 ng·h/mL | Cmax [7, 16]: 49900 ± 5200 ng/mL | AUC(0-t) [7, 16]: 38800 ng·h/mL | Cmax [8]: 20200 ng/mL | AUC(0-t) ([8]; read-out: AUC0-24 (converted)): 25700 ng·h/mL | concentration at 31 min ([9]; 1 mg/kg): 7290 ± 1470 ng/mL | concentration at 2 h ([9]; 1 mg/kg): 138 ± 97.8 ng/mL | concentration at 31 min ([9]; 3 mg/kg): 29300 ± 8420 ng/mL | concentration at 2 h ([9]; 3 mg/kg): 897 ± 575 ng/mL | concentration at 31 min ([9]; 6 mg/kg): 52200 ± 12800 ng/mL | concentration at 2 h ([9]; 6 mg/kg): 3030 ± 2920 ng/mL | slope (b) of regression equation of power model, dose proportionality (two-sided 95% confidence interval) ([9]; plasma concentration 31 minutes after initiation of administration, 1 to 6 mg/kg): 1.042 (0.895-1.189) | odds ratio of recanalization [10]: 4.23 | Estimated value (logistic model, dose group) for mRS 0-1 ([11]; 1 mg/kg to placebo group, Day 90, FAS): −2.425 | Odds ratio, rate of obtaining outcome of mRS0-2 ([11]; 1 mg/kg): 0.292 | Estimated value (logistic model, dose group) for mRS 0-1 ([11]; 3 mg/kg to placebo group, Day 90, FAS): −0.726 | Odds ratio, rate of obtaining outcome of mRS0-2 ([11]; 3 mg/kg): 0.585 | Estimated value (logistic model, dose group) for mRS 0-1 ([11]; 6 mg/kg to placebo group, Day 90, FAS): −1.207 | Odds ratio, rate of obtaining outcome of mRS0-2 ([11]; 6 mg/kg): 0.506 | Estimated value (logistic model, dose group) for mRS 0-1 [11, 17]: −1.206 | Odds ratio of mRS (mRS 0 and 1 assigned 1, mRS 2-6 assigned 0) [11, 17]: 0.299 | Odds ratio, rate of obtaining outcome of mRS0-2 ([11]; TMS-007 combined group): 0.500
